Assay results published in patent US20090156620A1, “[4-(6-FLUORO-7-METHYLAMINO-2,4-DIOXO-1,4-DIHYDRO-2H-QUINAZOLIN-3-YL)-PHENYL]-5-CHLORO-THIOPHEN-2-YL-SULFONYLUREA SALTS, FORMS AND METHODS RELATED THERETO” (Portola Pharmaceuticals, Inc., priority 2007, published 2009).
Several values for one entry are separate records, joined by “and”; a condition that tells them apart may be missing. Equal values may be shown once. Read-outs that look alike come from different tables or passages of the source. Each block holds one compound with its values, some of them ahead of it.

Assays:
[1] = solid form stability on storage at elevated temperature/humidity, by XRPD; type: physicochemical; conditions: for Stability: further changes / Stability: XRPD; for Stability: storage at 40° C./75% RH, days as in the value
Method: To 20 mg of [4-(6-fluoro-7-methylamino-2,4-dioxo-1,4-dihydro-2H-quinazolin-3-yl)-phenyl]-5-chloro-thiophen-2-yl-sulfonylurea in 3 mL of the various solvents, was added 1.1 eq. of the base in 1 mL solvent. The mixture was shaken for 2 hours and the solutions were left to evaporate down to half their volume to try to precipitate out the salt. […] Oils/emulsions and opaque liquids were left to maturate at 50° C./ambient in an 8 hour cycles for several weeks. […] Solid samples (crystalline and amorphous) were then filtered, dried and then analyzed to judge their purity, crystallinity and stability. Solids were analysed by ^1H NMR to confirm salt formation and analyzed by ion chromatography and TGA to obtain the stoichiometry of the salt.

[2] = for Aqueous solubility**: aqueous thermodynamic solubility, 25° C., 24 hours, expressed as free base equivalents, 100 mg scale-up samples
Method: The suspension was then filtered through a glass fibre C filter into a 96 well plate. […] Quantitation was by HPLC with reference to a standard solution of approximately 0.1 mg.ml^−1. in DMSO. Different volumes of the standard, diluted and undiluted sample solutions were injected.
If there was sufficient solid in the filter plate, the XRPD pattern was collected.

[3] = gravimetric vapour sorption (GVS); type: physicochemical; conditions: for GVS: Total weight change 0-90% RH: 25° C.; for GVS: XRPD post GVS: wrapped cells read: shows new form / matches stability samples / shows no change
Method: Sorption isotherms were obtained using a Hiden IGASorp moisture sorption analyser, controlled by CFRSorp software. The sample temperature was maintained at 25° C. by a Huber re-circulating water bath. The humidity was controlled by mixing streams of dry and wet nitrogen, with a total flow rate of 250 ml.min^−1. […] (typical room conditions). A moisture sorption isotherm was performed as outlined below (2 scans giving 1 complete cycle). […] The software uses a least squares minimisation procedure together with a model of the mass relaxation, to predict an asymptotic value. […] The minimum equilibration time was set to 1 hour and the maximum to 4 hours. The sample was recovered after completion of the isotherm and re-analysed by XRPD.

[4] = storage, time not stated (figure legend)
[5] = after a further 10 days at 60° C./75% RH
[6] = a further 4 days at 60° C./75% RH (figure legend)

Compound: CNc1cc2[nH]c(=O)n(-c3ccc(NC(=O)NS(=O)(=O)c4ccc(Cl)s4)cc3)c(=O)c2cc1F.[K] [Potassium hydroxide, [4-(6-fluoro-7-methylamino-2,4-dioxo-1,4-dihydro-2H-quinazolin-3-yl)-phenyl]-5-chloro-thiophen-2-yl-sulfonylurea potassium salt]
stability with respect to 40° C./75% RH by XRPD [1]: converts to an amorphous phase
Aqueous solubility** [2]: 2700 µg/mL

Compound: CNc1cc2[nH]c(=O)n(-c3ccc(NC(=O)NS(=O)(=O)c4ccc(Cl)s4)cc3)c(=O)c2cc1F.[Na] [Sodium Ethoxide, [4-(6-fluoro-7-methylamino-2,4-dioxo-1,4-dihydro-2H-quinazolin-3-yl)-phenyl]-5-chloro-thiophen-2-yl-sulfonylurea sodium salt]
GVS: Total weight change 0-90% RH [3]: 8.8 wt %, little hysteresis,
GVS: XRPD post GVS [3]: XRPD post GVS shows new
Stability: further changes ([1]; after 10 days at 40° C./75% RH): at 40° C./75% RH (no
Stability ([1]; sodium salt): Some changes after 2 days
Aqueous solubility** [2]: 7700 µg/mL

Compound: CNc1cc2[nH]c(=O)n(-c3ccc(NC(=O)NS(=O)(=O)c4ccc(Cl)s4)cc3)c(=O)c2cc1F.[Na] [Sodium hydroxide, [4-(6-fluoro-7-methylamino-2,4-dioxo-1,4-dihydro-2H-quinazolin-3-yl)-phenyl]-5-chloro-thiophen-2-yl-sulfonylurea sodium salt]
Stability ([1]; sodium salt): Amorphous after 3 days at
stability with respect to 40° C./75% RH by XRPD [1, 4]: converts to an amorphous phase

Compound: CNc1cc2[nH]c(=O)n(-c3ccc(NC(=O)NS(=O)(=O)c4ccc(Cl)s4)cc3)c(=O)c2cc1F.N [ammonium salt (form A), [4-(6-fluoro-7-methylamino-2,4-dioxo-1,4-dihydro-2H-quinazolin-3-yl)-phenyl]-5-chloro-thiophen-2-yl-sulfonylurea ammonium salt]
stability with respect to 40° C./75% RH by XRPD [1, 4]: improvements in crystallinity

Compound: CNc1cc2[nH]c(=O)n(-c3ccc(NC(=O)NS(=O)(=O)c4ccc(Cl)s4)cc3)c(=O)c2cc1F.[K] [form C, [4-(6-fluoro-7-methylamino-2,4-dioxo-1,4-dihydro-2H-quinazolin-3-yl)-phenyl]-5-chloro-thiophen-2-yl-sulfonylurea potassium salt]
XRPD after the GVS experiment [3]: reduced in crystallinity
pH ([2]; pH of the suspension in the solubility measurement, potassium salt): 8.7 and 8.8
Thermodynamic solubility in water ([2]; water): 4500 µg/mL

GVS: Total weight change 0-90% RH [3]: 13 wt %, mostly 80-90% RH,
GVS: XRPD post GVS [3]: XRPD post GVS matches
stability by XRPD ([1]; 3 days at 40° C./75% RH): remains stable
Stability: further changes [1, 5]: No changes
Stability [1]: No changes after 3 days
stability by XRPD [1, 6]: remains stable
Compound: [4-(6-fluoro-7-methylamino-2,4-dioxo-1,4-dihydro-2H-quinazolin-3-yl)-phenyl]-5-chloro-thiophen-2-yl-sulfonylurea calcium salt [Calcium acetate]

Compound: [4-(6-fluoro-7-methylamino-2,4-dioxo-1,4-dihydro-2H-quinazolin-3-yl)-phenyl]-5-chloro-thiophen-2-yl-sulfonylurea tromethamine salt
GVS: Total weight change 0-90% RH [3]: 4.1 wt %, little hysteresis,
GVS: XRPD post GVS [3]: XRPD post GVS matches
stability by XRPD ([1]; 3 days at 40° C./75% RH): some subtle changes
Stability: further changes [1, 5]: at 40° C./75% RH but no
Stability [1]: Some changes after 3 days
stability by XRPD [1, 6]: no further changes
